Data published in publication PMC7174022 (Dalton transactions (Cambridge, England : 2003), 2020).

Legend:
[1] = system: the cell lines investigated
[2] = system: MIA PaCa 2 cells (human pancreatic carcinoma); type: cell-based; details: read-out: IC50 MIA PaCa 2
[3] = system: PANC-1 cells (human pancreatic carcinoma); type: cell-based; details: read-out: IC50 PANC-1
[4] = system: Hep G2 cells (human hepatocellular carcinoma); type: cell-based; details: read-out: IC50 Hep G2
DU-145 cells = type: cell-based, human
[5] = system: DU-145 cells (metastatic prostate carcinoma); type: cell-based, human; details: read-out: IC50 DU-145
[6] = system: MCF-7 cells (breast adenocarcinoma); type: cell-based, human; details: read-out: IC50 MCF-7
[7] = system: HFF-1 cells (normal human foreskin fibroblast); type: cell-based; details: read-out: IC50 HFF-1
[8] = system: microtubule network in MCF-7 cells; type: cell-based, human

For `OCCN(CCO)Cc1ccccn1` [Complex L1, bis(2-hydroxyethyl)pyridylmethylamine], the “cytotoxicity of the ligands (in words)” value [1] was “did not exhibit any cytotoxicity”.
With `O=C1[O][Pt]2([NH][C@@H]3CCCC[C@H]3[NH]2)[O]C1=O` [Oxaliplatin] the IC50 [2] was 5.7 ± 0.2 µM, the IC50 [3] was 3.1 ± 0.2 µM and the IC50 [4] was 9.8 ± 0.3 µM. For the same compound, the “increase in cell killing efficiency in presence of verapamil” value (DU-145 cells) was 8 times, the IC50 [5] was 4.5 ± 0.3 µM and the IC50 [6] was 0.6 ± 0.1 µM. It also gave an IC50 [7] of 7 ± 0.6 µM.
`COc1cc2c(c(OC)c1OC)-c1ccc(OC)c(=O)cc1[C@@H](NC(C)=O)CC2` [colchicine, Colchicine] was tested, and the “organization of microtubule network (positive control)” value [8] was “disruption of microtubule network”.
